How the values were obtained:
basil 'Genovese' [1] = experiment: Visual injury of basil after insecticide, fungicide, PGRs, safeners (Example 4)
How it was run: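 Read-out: percent visual injury, 0 (no visual response) to 100 (complete plant death), covering general phytotoxicity, chlorosis and stunting. Treatments were chlorpyrifos, chlorothalonil, mepiquat-chloride, paclobutrazol, napthalic anhydride, isoxadifen-ethyl, applied postemergence. Harvest at ~4 weeks.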

basil 'Genovese' [2] = experiment: Content analysis of basil: protein, minerals (Example 4, Tables 10-11); assay type: in vivo; details: 28 DA-A
How it was run: (§1)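 Plants received postemergence sprays of one insecticide, one fungicide, two PGRs or two safeners in the greenhouse. About 4 weeks later they were harvested, and replicates were pooled for laboratory content analysis. Injury was rated visually on a 0–100% scale.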

kale 'Red Russian' = experiment: Visual injury of kale after insecticide, fungicide, PGRs, safeners (Example 4)
Method: Greenhouse and laboratory studies were conducted to ascertain the tolerance and nutritional quality differences following postemergence applications of the insecticide chlorpyrifos, the fungicide chlorothalonil, the PGRs mepiquat-chloride and paclobutrazol, and the safeners napthalic anhydride and isoxadifen-ethyl on kale ‘Red Russian’ and basil ‘Genovese’. Visual injury was rated based on general phytotoxicity, chlorosis, and visual stunting and each measurement was based on a percent scale from 0 to 100 where 0 equals no visual response and 100 equals complete plant death. Kale and basil were both harvested approximately 4 weeks after treatments and plants were pooled over replicates for content analysis of crude protein, crude amino acid content, acid detergent fiber, neutral detergent fiber, total fatty acids, and/or key mineral content (including Na, Ca, P, Mg, K, Fe, Mn, Zn, and Cu). In addition, the amounts of key individual amino acids (aspartic acid, threonine, glutamic acid, proline, glycine, cysteine, valine, leucine, isoleucine, methionine, and lysine) and composite classifications of fatty acid (saturated fatty acids, monounsaturated fatty acids, polyunsaturated fatty acids) were also analyzed from these sub-samples for kale (Tables 10-14).

basil ‘Genovese’ = experiment: Yield, fresh weight of basil after insecticide, fungicide, PGRs and safeners (Example 4, Table 10); assay type: in vivo; details: DA-A, check 31.8
How it was run: as §1

[3] = 14 DA-A, rates g ai/ha: chlropyrifos 1120, chlorothalonil 2630, paclobutrazol 3.23, mepiquat-chloride 12.3, Isoxadifen 8, Napthalic anhydride 264, + NIS 0.25 % v/v
[4] = 14 DA-A, rates g ai/ha: chlropyrifos 3370, chlorothalonil 7900, paclobutrazol 9.7, mepiquat-chloride 37, Isoxadifen 16, Napthalic anhydride 527, + NIS 0.25 % v/v
[5] = 28 DA-A, rates g ai/ha: chlropyrifos 1120, chlorothalonil 2630, paclobutrazol 3.23, mepiquat-chloride 12.3, Isoxadifen 8, Napthalic anhydride 264, + NIS 0.25 % v/v
[6] = 28 DA-A, rates g ai/ha: chlropyrifos 3370, chlorothalonil 7900, paclobutrazol 9.7, mepiquat-chloride 37, Isoxadifen 16, Napthalic anhydride 527, + NIS 0.25 % v/v
[7] = rates g ai/ha: chlroprifos 3370, chlorothalonil 7900, paclobutrazol 9.7, mepiquat-chloride 37, Isoxadifen 16, Napthalic anhydride 527, + NIS 0.25 % v/v
[8] = rates g ai/ha: chlropyrifos 1120, chlorothalonil 2630, paclobutrazol 3.23, mepiquat-chloride 12.3, Isoxadifen 8, Napthalic anhydride 264, + NIS 0.25 % v/v
[9] = 7 DA-A, rates g ai/ha: chlropyrifos 1120, chlorothalonil 2630, paclobutrazol 3.23, mepiquat-chloride 12.3, + NIS 0.25 % v/v
[10] = 7 DA-A, rates g ai/ha: chlropyrifos 3370, chlorothalonil 7900, paclobutrazol 9.7, mepiquat-chloride 37, + NIS 0.25 % v/v
[11] = 14 DA-A, rates g ai/ha: chlropyrifos 1120, chlorothalonil 2630, paclobutrazol 3.23, mepiquat-chloride 12.3, + NIS 0.25 % v/v
[12] = 14 DA-A, rates g ai/ha: chlropyrifos 3370, chlorothalonil 7900, paclobutrazol 9.7, mepiquat-chloride 37, + NIS 0.25 % v/v
[13] = 28 DA-A, rates g ai/ha: chlropyrifos 1120, chlorothalonil 2630, paclobutrazol 3.23, mepiquat-chloride 12.3, + NIS 0.25 % v/v
[14] = 28 DA-A, rates g ai/ha: chlropyrifos 3370, chlorothalonil 7900, paclobutrazol 9.7, mepiquat-chloride 37, + NIS 0.25 % v/v

With N#Cc1c(Cl)c(Cl)c(Cl)c(C#N)c1Cl [chlorothalonil] the “Phytotoxicity Chlorosis” value (basil 'Genovese' [1]; [3]) was 5%, the “Phytotoxicity General” value (basil 'Genovese' [1]; [3]) was 0% and the “Phytotoxicity Stunting” value (basil 'Genovese' [1]; [3]) was 8%. The “Phytotoxicity Chlorosis” value (basil 'Genovese' [1]; [4]) was 5%, the “Phytotoxicity General” value (basil 'Genovese' [1]; [4]) was 2% and the “Phytotoxicity Stunting” value (basil 'Genovese' [1]; [4]) was 7%. The “Phytotoxicity Chlorosis” value (basil 'Genovese' [1]; [5]) was 5%, the “Phytotoxicity General” value (basil 'Genovese' [1]; [5]) was 10% and the “Phytotoxicity Stunting” value (basil 'Genovese' [1]; [5]) was 7%. For the same compound, the “Phytotoxicity Chlorosis” value (basil 'Genovese' [1]; [6]) was 10%, the “Phytotoxicity General” value (basil 'Genovese' [1]; [6]) was 3% and the “Phytotoxicity Stunting” value (basil 'Genovese' [1]; [6]) was 10%. The “ADF, Percent Increase Over the Untreated Check (on a % dry matter basis)” value (basil 'Genovese' [2]; [7]) was 1 % check, the “Calcium, Percent Increase Over the Untreated Check (on a % dry matter basis)” value (basil 'Genovese' [2]; [7]) was −15 % check and the “Copper, Percent Increase Over the Untreated Check (on a % dry matter basis)” value (basil 'Genovese' [2]; [7]) was −17 % check. The “Iron, Percent Increase Over the Untreated Check (on a % dry matter basis)” value (basil 'Genovese' [2]; [7]) was 25 % check, the “Magnesium, Percent Increase Over the Untreated Check (on a % dry matter basis)” value (basil 'Genovese' [2]; [7]) was −6 % check and the “Manganese, Percent Increase Over the Untreated Check (on a % dry matter basis)” value (basil 'Genovese' [2]; [7]) was −8 % check. For the same compound, the “NDF, Percent Increase Over the Untreated Check (on a % dry matter basis)” value (basil 'Genovese' [2]; [7]) was 12 % check, the “Phosphorous, Percent Increase Over the Untreated Check (on a % dry matter basis)” value (basil 'Genovese' [2]; [7]) was 0 % check and the “Potassium, Percent Increase Over the Untreated Check (on a % dry matter basis)” value (basil 'Genovese' [2]; [7]) was 7 % check. The “Protein, Percent Increase Over the Untreated Check (on a % dry matter basis)” value (basil 'Genovese' [2]; [7]) was 3 % check, the “Sodium, Percent Increase Over the Untreated Check (on a % dry matter basis)” value (basil 'Genovese' [2]; [7]) was 50 % check and the “Soluble protein, Percent Increase Over the Untreated Check (on a % dry matter basis)” value (basil 'Genovese' [2]; [7]) was 42 % check. The “Zinc, Percent Increase Over the Untreated Check (on a % dry matter basis)” value (basil 'Genovese' [2]; [7]) was −6 % check, the “ADF, Percent Increase Over the Untreated Check (on a % dry matter basis)” value (basil 'Genovese' [2]; [8]) was 1 % check and the “Calcium, Percent Increase Over the Untreated Check (on a % dry matter basis)” value (basil 'Genovese' [2]; [8]) was 0 % check. For the same compound, the “Copper, Percent Increase Over the Untreated Check (on a % dry matter basis)” value (basil 'Genovese' [2]; [8]) was −17 % check, the “Iron, Percent Increase Over the Untreated Check (on a % dry matter basis)” value (basil 'Genovese' [2]; [8]) was 37 % check and the “Magnesium, Percent Increase Over the Untreated Check (on a % dry matter basis)” value (basil 'Genovese' [2]; [8]) was 3 % check. For the same compound, the “Manganese, Percent Increase Over the Untreated Check (on a % dry matter basis)” value (basil 'Genovese' [2]; [8]) was 43 % check, the “NDF, Percent Increase Over the Untreated Check (on a % dry matter basis)” value (basil 'Genovese' [2]; [8]) was 6 % check and the “Phosphorous, Percent Increase Over the Untreated Check (on a % dry matter basis)” value (basil 'Genovese' [2]; [8]) was 9 % check. For the same compound, the “Potassium, Percent Increase Over the Untreated Check (on a % dry matter basis)” value (basil 'Genovese' [2]; [8]) was 4 % check, the “Protein, Percent Increase Over the Untreated Check (on a % dry matter basis)” value (basil 'Genovese' [2]; [8]) was 3 % check and the “Sodium, Percent Increase Over the Untreated Check (on a % dry matter basis)” value (basil 'Genovese' [2]; [8]) was 8 % check. For the same compound, the “Soluble protein, Percent Increase Over the Untreated Check (on a % dry matter basis)” value (basil 'Genovese' [2]; [8]) was 223 % check, the “Zinc, Percent Increase Over the Untreated Check (on a % dry matter basis)” value (basil 'Genovese' [2]; [8]) was 38 % check and the “Phytotoxicity Chlorosis” value (kale 'Red Russian'; [9]) was 0%. The “Phytotoxicity General” value (kale 'Red Russian'; [9]) was 15%, the “Phytotoxicity Stunting” value (kale 'Red Russian'; [9]) was 0% and the “Phytotoxicity Chlorosis” value (kale 'Red Russian'; [10]) was 0%. For the same compound, the “Phytotoxicity General” value (kale 'Red Russian'; [10]) was 9%, the “Phytotoxicity Stunting” value (kale 'Red Russian'; [10]) was 1% and the “Phytotoxicity Chlorosis” value (kale 'Red Russian'; [11]) was 10%. For the same compound, the “Phytotoxicity General” value (kale 'Red Russian'; [11]) was 0%, the “Phytotoxicity Stunting” value (kale 'Red Russian'; [11]) was 5% and the “Phytotoxicity Chlorosis” value (kale 'Red Russian'; [12]) was 6%. For the same compound, the “Phytotoxicity General” value (kale 'Red Russian'; [12]) was 1%, the “Phytotoxicity Stunting” value (kale 'Red Russian'; [12]) was 5% and the “Phytotoxicity Chlorosis” value (kale 'Red Russian'; [13]) was 3%. For the same compound, the “Phytotoxicity General” value (kale 'Red Russian'; [13]) was 5%, the “Phytotoxicity Stunting” value (kale 'Red Russian'; [13]) was 6% and the “Phytotoxicity Chlorosis” value (kale 'Red Russian'; [14]) was 0%. The “Phytotoxicity General” value (kale 'Red Russian'; [14]) was 3%, the “Phytotoxicity Stunting” value (kale 'Red Russian'; [14]) was 8% and the “Yield Fresh weight” value (basil ‘Genovese’; [8]) was 27.5 grams. The “Yield Fresh weight” value (basil ‘Genovese’; rates g ai/ha: chlropyrifos 3370, chlorothalonil 7900, paclobutrazol 9.7, mepiquat-chloride 37, Isoxadifen 16, Napthalic anhydride 527, + NIS 0.25 % v/v) was 25.9 grams.

Source: US20110053773A1, “METHODS OF IMPROVING NUTRITIONAL VALUE OF PLANTS” (UNIVERSITY OF TENNESSEE RESEARCH FOUNDATION, priority 2009, published 2011)
